# According to PubChem BioAssay (NCI):
#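 Grown in 96-well plates, cells were treated for 48 hours with each compound at five concentrations. Insufficient inhibition: endpoint recorded as highest concentration tested. GI50 marks 50% less growth. TGI denotes the concentration required for complete inhibition of growth.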
# Key:
# Experiment in all cases: NCI-60 cell line screen, 48 h
# EKVX NSCLC = test system: EKVX NSCLC
# UACC-257 melanoma = test system: UACC-257 melanoma
# UO-31 renal = test system: UO-31 renal
# NCI-H23 lung = test system: NCI-H23 lung
# SK-MEL-28 melanoma = test system: SK-MEL-28 melanoma
# MCF7 breast = test system: MCF7 breast
# SK-OV-3 ovarian = test system: SK-OV-3 ovarian
# OVCAR-3 ovarian = test system: OVCAR-3 ovarian
# SW-620 colon = test system: SW-620 colon
# DU-145 prostate = test system: DU-145 prostate
# NCI-H460 lung = test system: NCI-H460 lung
# COLO 205 colon = test system: COLO 205 colon
# UACC-62 melanoma = test system: UACC-62 melanoma
# T-47D breast = test system: T-47D breast
# A549 NSCLC = test system: A549 NSCLC
# SF-295 CNS = test system: SF-295 CNS
# HOP-92 NSCLC = test system: HOP-92 NSCLC
# SNB-19 CNS = test system: SNB-19 CNS
# OVCAR-8 ovarian = test system: OVCAR-8 ovarian
# SF-539 CNS = test system: SF-539 CNS
# MOLT-4 leukemia = test system: MOLT-4 leukemia
# SK-MEL-2 melanoma = test system: SK-MEL-2 melanoma
# SF-268 CNS = test system: SF-268 CNS
# TK-10 renal = test system: TK-10 renal
# HT29 colon = test system: HT29 colon
# ACHN renal = test system: ACHN renal
# HOP-62 NSCLC = test system: HOP-62 NSCLC
# HCT-116 colon = test system: HCT-116 colon
# PC-3 prostate = test system: PC-3 prostate
# LOX IMVI melanoma = test system: LOX IMVI melanoma
# MDA-MB-231 breast = test system: MDA-MB-231 breast
# A498 renal = test system: A498 renal
# NCI-H522 lung = test system: NCI-H522 lung
# MDA-MB-435 = test system: MDA-MB-435
# IGROV1 ovarian = test system: IGROV1 ovarian
# OVCAR-4 ovarian = test system: OVCAR-4 ovarian
# U251 CNS = test system: U251 CNS
# MALME-3M melanoma = test system: MALME-3M melanoma
# KM12 colon = test system: KM12 colon
# SN12C renal = test system: SN12C renal
# BT-549 breast = test system: BT-549 breast
# CAKI-1 renal = test system: CAKI-1 renal
# HL-60(TB) leukemia = test system: HL-60(TB) leukemia
# SK-MEL-5 melanoma = test system: SK-MEL-5 melanoma
# NCI-H226 lung = test system: NCI-H226 lung
# NCI/ADR-RES ovarian = test system: NCI/ADR-RES ovarian
# RXF 393 renal = test system: RXF 393 renal
# 786-0 renal = test system: 786-0 renal
# M14 melanoma = test system: M14 melanoma
# OVCAR-5 ovarian = test system: OVCAR-5 ovarian
# SNB-75 CNS = test system: SNB-75 CNS
# CCRF-CEM leukemia = test system: CCRF-CEM leukemia
# HCT-15 colon = test system: HCT-15 colon
# HCC-2998 colon = test system: HCC-2998 colon
# HS 578T breast = test system: HS 578T breast
# K-562 leukemia = test system: K-562 leukemia
# RPMI-8226 leukemia = test system: RPMI-8226 leukemia
structure (smiles),measurement,setting,value
NC(=O)[C@@H](CCC(F)(F)F)N(Cc1ccc(-c2ncon2)cc1F)S(=O)(=O)c1ccc(Cl)cc1,GI50,EKVX NSCLC,> 90.3 µM
same,TGI,EKVX NSCLC,> 100 µM
same,GI50,UACC-257 melanoma,27.3 µM
same,TGI,UACC-257 melanoma,> 85.6 µM
same,GI50,UO-31 renal,13.1 µM
same,TGI,UO-31 renal,> 100 µM
same,GI50,NCI-H23 lung,36.1 µM
same,TGI,NCI-H23 lung,> 100 µM
same,GI50,SK-MEL-28 melanoma,45.5 µM
same,TGI,SK-MEL-28 melanoma,> 100 µM
same,GI50,MCF7 breast,28.4 µM
same,TGI,MCF7 breast,> 100 µM
same,GI50,SK-OV-3 ovarian,> 50.7 µM
same,TGI,SK-OV-3 ovarian,> 89.9 µM
same,GI50,OVCAR-3 ovarian,23.6 µM
same,TGI,OVCAR-3 ovarian,> 60.5 µM
same,GI50,SW-620 colon,> 59.9 µM
same,TGI,SW-620 colon,> 100 µM
same,GI50,DU-145 prostate,> 67.1 µM
same,TGI,DU-145 prostate,> 100 µM
same,GI50,NCI-H460 lung,30.6 µM
same,TGI,NCI-H460 lung,> 100 µM
same,GI50,COLO 205 colon,27.4 µM
same,TGI,COLO 205 colon,> 57.2 µM
same,GI50,UACC-62 melanoma,18.2 µM
same,TGI,UACC-62 melanoma,> 50.7 µM
same,GI50,T-47D breast,21.3 µM
same,TGI,T-47D breast,> 78.7 µM
same,GI50,A549 NSCLC,36.7 µM
same,TGI,A549 NSCLC,> 100 µM
same,GI50,SF-295 CNS,35.3 µM
same,TGI,SF-295 CNS,> 100 µM
same,GI50,HOP-92 NSCLC,8.88 µM
same,TGI,HOP-92 NSCLC,43.3 µM
same,GI50,SNB-19 CNS,> 50.6 µM
same,TGI,SNB-19 CNS,> 100 µM
same,GI50,OVCAR-8 ovarian,46.8 µM
same,TGI,OVCAR-8 ovarian,> 100 µM
same,GI50,SF-539 CNS,31 µM
same,TGI,SF-539 CNS,> 62.6 µM
same,GI50,MOLT-4 leukemia,16.3 µM
same,TGI,MOLT-4 leukemia,54.7 µM
same,GI50,SK-MEL-2 melanoma,29.7 µM
same,TGI,SK-MEL-2 melanoma,> 63.9 µM
same,GI50,SF-268 CNS,39.6 µM
same,TGI,SF-268 CNS,> 100 µM
same,GI50,TK-10 renal,21 µM
same,TGI,TK-10 renal,> 63.5 µM
same,GI50,HT29 colon,21.3 µM
same,TGI,HT29 colon,> 58.7 µM
same,GI50,ACHN renal,26.7 µM
same,TGI,ACHN renal,> 73.2 µM
same,GI50,HOP-62 NSCLC,> 43.2 µM
same,TGI,HOP-62 NSCLC,> 64.5 µM
same,GI50,HCT-116 colon,35.3 µM
same,TGI,HCT-116 colon,> 61.7 µM
same,GI50,PC-3 prostate,12.6 µM
same,TGI,PC-3 prostate,> 100 µM
same,GI50,LOX IMVI melanoma,29.9 µM
same,TGI,LOX IMVI melanoma,> 100 µM
same,GI50,MDA-MB-231 breast,36.3 µM
same,TGI,MDA-MB-231 breast,> 100 µM
same,GI50,A498 renal,8.86 µM
same,TGI,A498 renal,> 62.7 µM
same,GI50,NCI-H522 lung,48.8 µM
same,TGI,NCI-H522 lung,> 100 µM
same,GI50,MDA-MB-435,21.3 µM
same,TGI,MDA-MB-435,> 59.1 µM
same,GI50,IGROV1 ovarian,51.7 µM
same,TGI,IGROV1 ovarian,> 100 µM
same,GI50,OVCAR-4 ovarian,44.5 µM
same,TGI,OVCAR-4 ovarian,> 100 µM
same,GI50,U251 CNS,> 49 µM
same,TGI,U251 CNS,> 100 µM
same,GI50,MALME-3M melanoma,32 µM
same,TGI,MALME-3M melanoma,> 73.7 µM
same,GI50,KM12 colon,23.1 µM
same,TGI,KM12 colon,> 56.3 µM
same,GI50,SN12C renal,25.8 µM
same,TGI,SN12C renal,> 57.8 µM
same,GI50,BT-549 breast,32.6 µM
same,TGI,BT-549 breast,> 59 µM
same,GI50,CAKI-1 renal,13.7 µM
same,TGI,CAKI-1 renal,> 62.8 µM
same,GI50,HL-60(TB) leukemia,23.7 µM
same,TGI,HL-60(TB) leukemia,65.6 µM
same,GI50,SK-MEL-5 melanoma,15.8 µM
same,TGI,SK-MEL-5 melanoma,33.2 µM
same,GI50,NCI-H226 lung,> 54.1 µM
same,TGI,NCI-H226 lung,> 100 µM
same,GI50,NCI/ADR-RES ovarian,47.5 µM
same,TGI,NCI/ADR-RES ovarian,> 100 µM
same,GI50,RXF 393 renal,20.8 µM
same,TGI,RXF 393 renal,> 100 µM
same,GI50,786-0 renal,> 40.5 µM
same,TGI,786-0 renal,> 59 µM
same,GI50,M14 melanoma,22.2 µM
same,TGI,M14 melanoma,> 52.6 µM
same,GI50,OVCAR-5 ovarian,> 49.5 µM
same,TGI,OVCAR-5 ovarian,> 100 µM
same,GI50,SNB-75 CNS,53.3 µM
same,TGI,SNB-75 CNS,> 100 µM
same,GI50,CCRF-CEM leukemia,20.8 µM
same,TGI,CCRF-CEM leukemia,> 100 µM
same,GI50,HCT-15 colon,69.6 µM
same,TGI,HCT-15 colon,> 100 µM
same,GI50,HCC-2998 colon,> 68.9 µM
same,TGI,HCC-2998 colon,> 100 µM
same,GI50,HS 578T breast,28.8 µM
same,TGI,HS 578T breast,> 100 µM
same,GI50,K-562 leukemia,34.9 µM
same,TGI,K-562 leukemia,> 100 µM
same,GI50,RPMI-8226 leukemia,14.5 µM
same,TGI,RPMI-8226 leukemia,64.4 µM
